Experimental data from patent publication US20190290656A1, “PT(IV) PRODRUGS” (YISSUM RESEARCH DEVELOPMENT COMPANY OF THE HEBREW …, priority 2015, published 2019).
Read-outs that look alike come from different tables or passages of the source.

Legend:
PSN1 cells = experiment: MTT cytotoxicity assay, PSN1; type: cell-based, human; conditions: PSN1, 72 h, MTT
Method: (§1) MTT assay. […] Triplicate cultures were established for each treatment.
(§2) The two dimers, 3a and 3b, as well as compounds 1a and 2a were screened against six human cancer cell lines representative of lung (H157), colon (HCT-15), cervical (A431), ovarian (2008) and pancreatic (PSN1) cancers, along with melanoma (A375). Cytotoxicity was evaluated by means of the MTT test after 72 h of treatment and the in vitro antitumor potential of newly synthesized derivatives was compared to that of the reference metallo-drugs CDDP and OXP.

PSN-1 spheroids = experiment: 3D spheroid APH assay, PSN-1; type: cell-based, human; conditions: PSN-1 spheroids, 72 h, APH test
Excerpt: (§3) Acid phosphatase (APH) assay. A modified APH assay, which is based on quantification of cytosolic acid phosphatase activity, was used for determining cell viability in spheroids. […] Triplicate cultures were established for each treatment. […] Evaluation was based on means from at least four independent experiments.
(§4) In order to improve the predictive capacity of the in vitro assays, we tested the activity in three three-dimensional (3D) cell cultures; human colon cancer cells, HCT-15, and human pancreatic cancer cells, KRAS wild type BxPC3 cells KRAS mutated PSN-1 cells. The cancer spheroids were treated with 3a and 3b for 72 h and the cell viability was assessed by means of the APH assay (Table 6). For comparison purposes, the cytotoxicities of CDDP and OXP were evaluated under the same experimental conditions.

A431 cells = experiment: MTT cytotoxicity assay, A431; type: cell-based, human; conditions: A431, 72 h
Method: as §1, §2

[1] = system: Histone deacetylase (HDAC); experiment: Histone deacetylase assay in PSN-1 cells; type: cell-based, human; conditions: 24 h, IC50 concentrations
Method: (§5) Histone deacetylase assay. Histone deacetylase activity was determined using Fluor-de-Lys® HDAC fluorometric activity assay kit (Enzo Life Sciences International, Inc., Plymount Meeting, Pa., U.S.A.). 2008 and PSN1 cells (5.10^4 seeded in 96-well microplates) were treated for 24 h with tested complexes, and then processed as reported by the manufacturer's instructions. Fluorescence was measured using a Fluoroskan Ascent FL (Labsystem, Finland) plate reader, with excitation at 360 nm and emission at 460 nm.
(§6) Thus, we measured both the levels of DNA platination and the ability of these pro-drugs to inhibit HDAC activity in cancer cells.

BxPC3 spheroids = experiment: 3D spheroid APH assay, BxPC3; type: cell-based, human; conditions: 72 h, APH test
Excerpt: as §3, §4

[2] = system: Histone deacetylase (HDAC); experiment: Histone deacetylase assay in 2008 cells; type: cell-based, human; conditions: 24 h, IC50 concentrations
Method: as §5, §6

2008 cells [3] = experiment: Glycolysis (Mito-ID O2 sensor), 2008; type: cell-based, human; conditions: IC50 concentrations, 24 h
Method: (§7) Glycolysis. The cellular glycolytic activity was assessed using the Mito-ID® O2 Extracellular Sensor Kit according to the manufacturer's instructions (Enzo Life Sciences, Farmingdale, N.Y.). Briefly, PSN-1 cells (15·10^3 per well) were seeded in 96-well plates. After 24 h, cells were treated with Mito-ID® O2 Sensor Probe Solution containing the tested compounds at the appropriate concentration. Fluorescence was estimated using a plate reader (Fluoroskan Ascent FL, Labsystem, Finland) at 350 nm (excitation) and 610 nm (emission).
(§8) Based on the above findings, we investigated the effects determined by derivatives 3a and 3b on 2008 and PSN-1 cancer cell aerobic glycolysis and mitochondria function.
(§9) However, these effects were magnified in PSN-1 cells, having reduction of cellular glycolytic activity of about 36 and 20% for 3a and 3b, respectively. […] This latter result could be explained tacking into consideration that the reference compound [Pt(DACH)(56Phen)] itself, that is also released upon reduction of 3a and 3b, is effective in hampering cellular glycolysis in both tested cancer cell lines. The difference between 3a and 3b might be attributed to the added effect of DCA.

H157 cells = experiment: MTT cytotoxicity assay, H157; type: cell-based, human; conditions: H157, 72 h
Method: as §1, §2

A375 cells = experiment: MTT cytotoxicity assay, A375; type: cell-based, human
Method: (§10) Cisplatin (CDDP) and oxaliplatin (OXP) were dissolved just before the experiment in a 0.9% NaCl solution. […]
(§11) Cancer Res. 1988, 48, 589-601]. […] Triplicate cultures were established for each treatment.
as §1, §2

HCT-15 cells = experiment: MTT cytotoxicity assay, HCT-15; type: cell-based, human
Method: as §10, §11, §1, §2

[4] = system: human embryonic kidney HEK293 cells; experiment: MTT cytotoxicity against non-tumor cells; type: cell-based
Method: as §1
The cytotoxic activity of derivatives 3a and 3b was also evaluated against non-tumor cells, namely human embryonic kidney HEK293 cells (Table 7). Both compounds 3a and 3b were more cytotoxic than CDDP.

PSN-1 cells = experiment: Glycolysis (Mito-ID O2 sensor), PSN-1; type: cell-based, human; conditions: IC50 concentrations, 24 h
Method: as §7, §8, §9

HCT-15 spheroids = experiment: 3D spheroid APH assay, HCT-15; type: cell-based, human; conditions: HCT-15 spheroids, 72 h, APH test
Excerpt: as §3, §4

2008 cells [5] = experiment: MTT cytotoxicity assay, 2008; type: cell-based, human; conditions: 2008, 72 h, MTT
Method: as §1, §2

nine cancer cell lines = experiment: MTT cytotoxicity, over the nine cancer cell lines; conditions: for average fold more potent than cisplatin: average over cell lines
A2780cisR cells = experiment: MTT cytotoxicity assay, A2780cisR (cisplatin resistant); type: cell-based, human; conditions: A2780cisR, 72 h exposure, MTT; read-out: IC50 (median growth inhibitory concentration)
Method: (§12) Platinum(IV) complexes were dissolved in DMSO to stock solutions of 1 mg/mL just before the experiment, and a calculated amount of drug solution was added to the cell growth medium to a final solvent concentration of 0.5%, which had no discernible effect on cell killing. Cisplatin (CDDP) and oxaliplatin (OXP) were dissolved just before the experiment in a 0.9% NaCl solution.
(§13) Human prostate adenocarcinoma (PC3) cells were obtained from European Collection of Cell Cultures (ECACC, Salisbury, UK). Human ovarian cancer cell lines A2780 and its cisplatin resistant variant, A2780cisR, were kindly provided by Prof.
as §11

A2780 cells = experiment: MTT cytotoxicity assay, A2780; type: cell-based, human; conditions: A2780, 72 h exposure, MTT; read-out: IC50 (median growth inhibitory concentration)
Method: as §12, §13, §11

A549 cells = experiment: MTT cytotoxicity assay, A549; type: cell-based, human
Method: (§14) Cisplatin (CDDP) and oxaliplatin (OXP) were dissolved just before the experiment in a 0.9% NaCl solution.
as §13
(§15) Triplicate cultures were established for each treatment.

MCF-7 cells [6] = experiment: MTT cytotoxicity assay, MCF-7; type: cell-based, human
Method: as §14, §13, §15

[7] = system: Histone deacetylase (HDAC); experiment: Histone deacetylase assay (Fluor-de-Lys) in MCF-7 cells; type: cell-based, human
Method: Histone deacetylase activity was determined using Fluor-de-Lys® HDAC fluorometric activity assay kit (Enzo Life Sciences International, Inc., Plymount Meeting, Pa., U.S.A.). […] Fluorescence was measured using a Fluoroskan Ascent FL (Labsystem, Finland) plate reader, with excitation at 360 nm and emission at 460 nm. For comparison purpose, the HDAC activity was also measured in nuclear extracts of MCF-7-treated cells by means of the same fluorometric activity assay kit. In this latter case, MCF-7 nuclear extracts were obtained as follow: cell pellets were re-suspended in lysis buffer [Tris.HCl (10 mM, pH 8.0), KCl (60 mM), EDTA (1.2 mM), DTT (1 mM), PMSF (0.05 mM), NP-40 (0.05%)] and kept on ice for 10 min. Subsequently, samples were centrifuged at 1000 g and re-suspended in the nuclear extraction buffer [Tris.HCl (20 mM, (pH 8.0), NaCl (420 mM), MgCl2 (0.7 mM), EDTA (0.25 mM), glycerol (25%)] for 30 min at 4° C., and then centrifuged at 15000 g for 15 min at 4° C.
The complexes described here were specifically designed to release either VPA of PhB inside the cells in the hope that they will inhibit HDAC activity paving the way for more efficient DNA platination. Thus, in addition to measuring the levels of DNA platination, we also measured the ability of these pro-drugs to inhibit HDAC activity in cells. […] For comparison purposes, the HDAC inhibitory effect determined by tested complexes was also assayed in isolated nuclei of MCF-7 treated cells (FIG. 3B).
The HDAC activity was determined by the Fluor de Lys® Fluorescent Cellular Activity Assay (Enzo Life Sciences).
Also, MCF-7 cells were incubated for 24 h with increasing concentrations of compounds I-VIII and their HDAC activity was determined. The IC50 values for the inhibition of HDAC activity in the cells are depicted in FIG. 3C.

[8] = system: Lewis lung carcinoma (LLC); experiment: In vivo efficacy study, Lewis lung carcinoma mouse model; set-up: species or system C57BL mice; conditions: oral vs cisplatin ip
Method: A preliminary in vivo efficacy study was carried out on a mouse model (see Table 3 below):
Lewis lung carcinoma (LLC) was implanted i.m. (2·10^6 cells inoculum) into the right hind leg of 8-week old inbred C57BL mice (24±3 g body weight). Chemotherapy was delayed until the tumor became visible (day 7).

[9] = octanol/water partition, shake-flask method; type: physicochemical
Method: To quantify the hydrophobicity of the platinum complexes, partition coefficients (log P) values for octanol/water partition were measured using the shake-flask method.

BxPC3 cells = experiment: MTT cytotoxicity assay, BxPC3; type: cell-based, human
A498 cells = experiment: MTT cytotoxicity assay, A498; type: cell-based, human; conditions: A498, 72 h exposure, read-out: IC50 (median growth inhibitory concentration)
Method: as §12, §13, §11

PC3 cells = experiment: MTT cytotoxicity assay, PC3; type: cell-based, human; conditions: PC3, 72 h exposure, read-out: IC50 (median growth inhibitory concentration)
Method: as §14, §13, §15

MCF-7 cells [10] = experiment: Nuclear DNA fragmentation ELISA, MCF-7; type: cell-based, human; conditions: MCF-7, 24 h, IC50 concentrations
Excerpt: FIGS. 4A-4C describe: FIG. 4A—Nuclear DNA fragmentation. […] Quantitative estimation of DNA fragmentation was obtained with an ELISA test. Data are the means of five independent experiments. Error bars indicate SD. […] FIG. 4C—Caspase activity. […] Data are the means of at least three independent experiments. Error bars indicate SD.
To gain more insights into the mode of action of newly synthesized Pt(IV) derivatives, compounds 1 and 6 were chosen for further experiments. In particular, their capacity to induce apoptosis against human breast MCF-7 cells treated with equitoxic concentrations (IC50 values) of these drugs was evaluated and compared. Nuclear DNA fragmentation and apoptosome complex formation are critical steps in the apoptotic process. […] Apoptotic cell death induction was confirmed through a Hoechst 33342 staining.

c,c,t,t,c,c-[(DACH)(56Phen)(OAc)Pt(μ-OOC—(CH2)2—CONH(CH2)3COO)-Pt(OAc)(NH3)2(Cl2)](TFA)2 [Compound 3b]
IC50 (PSN1 cells): 6.12 µM
IC50 (PSN-1 spheroids): 60.5 ± 5.76 µM
IC50 (A431 cells): 5.25 ± 0.41 µM
HDAC activity hampered [1]: not effective in modifying HDAC activity
IC50 (BxPC3 spheroids): 81.3 ± 6.25 µM
HDAC activity hampered [2]: not effective in modifying HDAC activity
reduction of glycolysis processes compared with untreated control cells (2008 cells [3]): ~14%
IC50 (H157 cells): 8.25 ± 1.21 µM
IC50 (A375 cells; A375, 72 h, MTT (Table 5), read-out: IC50 (μM) ± S.D.): 1.05 ± 0.18 µM
IC50 (HCT-15 cells; HCT-15, 72 h, MTT (Table 5), read-out: IC50 (μM) ± S.D.): 1.89 ± 0.69 µM
IC50 ([4]; HEK293 non-tumor cells, 72 h, MTT): 7.8 ± 3.36 µM
SI (selectivity index) ([4]; ratio between average IC50 of non-tumor cells and IC50 of malignant cells): 1.7
reduction of cellular glycolytic activity (PSN-1 cells): ~20%
IC50 (HCT-15 spheroids): 75.9 ± 4.52 µM
IC50 (2008 cells [5]): 6.04 µM

[NH2][Pt]([NH2])([Cl])([Cl])([O]C(=O)CCCc1ccccc1)[O]C(=O)CCCc1ccccc1 [Compound VI, ctc-[Pt(NH3)2(C10H11O2)2Cl2]]
average fold more potent than cisplatin (nine cancer cell lines; listed as Ctc-[Pt(NH3)2(PhB)2Cl2]): 50 fold
average fold more potent than cisplatin (nine cancer cell lines; listed as ctc-[Pt(NH3)2(PhB)2Cl2]): about 24 fold
fold improvement in potency on replacing both VPA ligands with PhB (VI vs I) (nine cancer cell lines; on the average): ~5 fold
fold more potent than the mono-PhB monoacetate complex (nine cancer cell lines; range over cell lines): 4.6-53 fold
IC50 (nine cancer cell lines; read-out: average IC50 values for the nine cancer cell lines, mean over nine cell lines, 72 h MTT): 230 nM
IC50 (nine cancer cell lines; read-out: range of IC50 values over the cell lines, lowest-highest over nine cell lines): 120 to 430 nM
IC50 (A2780cisR cells): 120 nM
IC50 (A2780 cells): 140 nM
fold more potent than cisplatin (A549 cells; A549): ~50 fold
IC50 (A549 cells; A549, 72 h exposure, MTT, read-out: IC50 (median growth inhibitory concentration)): 170 ± 40 nM
times more effective/potent than cisplatin (MCF-7 cells [6]; MCF-7): ~100 fold
IC50 (MCF-7 cells [6]; MCF-7, 72 h exposure, MTT, read-out: IC50 (median growth inhibitory concentration)): 180 ± 30 nM
IC50 for cellular inhibition of HDAC activity (in words) ([7]; MCF-7, 24 h, increasing concentrations): highest inhibitory effect
inhibition of HDAC activity ([7]; MCF-7, 24 h incubation with IC50 concentrations): approximately 70%
in vivo efficacy by oral administration (in words) [8]: nearly as effective in this model as cisplatin
Log P [9]: −0.73 ± 0.05
times more effective/potent than cisplatin (BxPC3 cells; BxPC3): ~60 fold
IC50 (BxPC3 cells; BxPC3, 72 h exposure, MTT, read-out: IC50 (median growth inhibitory concentration)): 190 ± 10 nM
IC50 (A498 cells): 430 ± 20 nM
IC50 (PC3 cells): 410 ± 60 nM
times higher induction of nucleosome formation compared with cisplatin (MCF-7 cells [10]): 2 fold
IC50 (A375 cells; A375, 72 h exposure, MTT (Table 1), read-out: IC50 (median growth inhibitory concentration)): 0.16 ± 0.02 µM
IC50 (HCT-15 cells; HCT-15, 72 h exposure, MTT (Table 1), read-out: IC50 (median growth inhibitory concentration)): 0.31 ± 0.04 µM
